US7667052B2 (Eisai R&D Management Co., Ltd., priority 2003, dated 2010)

Test system: transcription from VEGF promoter
Experiment: VEGF transcription-suppressing activity, VEGF-PLAP reporter in U251/1-8 cell
Format: cell-based
Settings: Homo sapiens, U-251; U251/1-8 cell, PLAP activity, low oxygen 18 hours; read-out: IC50 values of VEGF transcription-suppressing activity (range given)
Text: In order to prepare reporter system reflecting transcription from VEGF promoter, VEGF promoter sequence was cloned, and inserted in secretory alkali phosphatase (PLAP) vector to construct reporter vector.
In order to obtain the promoter region of human VEGF, VEGF genome was cloned from phage library. PCR primers having the sequences described in Sequence Numbers 1 and 2 were designed based on VEGF cDNA (GenBank accession number: X62568) and a fragment having about 340 bp was obtained by carrying out PCR. Human genome phage library (Human genomic library, Clontech Co.) was screened using this as a probe to obtain pUC18-VEGFA containing about 5.4 kb of VEGF 5′ flanking region. The pUC18-VEGFA was cleaved by KpnI/NheI, VEGF promoter region of about 2.3 kb obtained was inserted in the multi cloning site KpnI/NheI of secretory alkali phosphatase (PLAP) vector (Goto et al, Mol. Pharmacol., 49, 860-873, 1996), and thus, VEGF-PLAP vector was constructed.
The above-mentioned VEGF-PLAP vector was introduced in the U251 cell cultured in the DULBECCO-modified eagle medium (DMEM; manufactured by SIGMA Co., Ltd.) containing 10% fetal calf serum, and cultured in the presence of 1 mg/ml G418 (Merck Co.) to establish G418 resistant stable clone (U251/1-8 cell).
It was confirmed that U251/1-8 cell secreted PLAP under low oxygen (2% O2 incubator) in the same manner as in the report (Cell. Mol. Biol. Res. 40, 35-39, 1994) and was a reporter system reflecting the transcription from VEGF promoter. The screening of the compound suppressing VEGF production which was induced by low oxygen stimulation was carried out below using the clone.
In order to remove the influence of alkaline phosphates in serum, U251/1-8 cell was rinsed twice with the adequate amount of PBS (Phosphate buffered saline), diluted in the DMEM medium containing 10% of serum in which alkaline phosphates was inactivated by the treatment of 60° C. for 20 min., and dispensed in 96-well plates by 4×10^4 cells/180 μl.
After culturing at 37° C. overnight in a CO2 incubator (5% CO2), 20 μL of the above-mentioned incubation solution containing the test compound diluted with 3-fold succession was added, and then they were incubated in a low oxygen ([…]) incubator for 18 hours. With respect to the PLAP activity in the culture supernatants, 10 μl of the supernatants was added to 50 μl of 0.28 M Na2CO3—NaHCO3 buffer solution (pH 10.0, 8.0 mM MgSO4), and finally 50 μl of alkaline phosphatase substrate (LUMISTEIN, Genomescience Co.) was added. After reacting for one hour, the alkaline phosphatase activity of the PLAP was measured by detecting the chemical luminescence by a micro plate reader (Perkin-Elmer Co.).
The PLAP activity under usual oxygen was set as 0%, the PLAP activity of cell which was treated under low oxygen was set as 100%, and the concentration suppressing the PLAP activity by 50% was set as the IC50 value of PLAP.

CCCC(=O)OC1/C=C/C(C)C(/C(C)=C/C=C/C(C)CC2OC2C(C)C(O)CC)OC(=O)CC(O)CCC1(C)O (centres unmarked) [B42]
IC50: 0.5 to 100 nM

CCC(OC(C)=O)C(C)C1OC1CC(C)/C=C/C=C(\C)C1OC(=O)/C=C\CCC(C)(O)C(OC(C)=O)/C=C/C1C (centres unmarked) [B43-1, (2Z,8E,12E,14E)-7,21-Diacetoxy-6-hydroxy-6,10,12,16,20-pentamethyl-18,19-epoxytricosa-8,12,14-trien-11-olide]
IC50: 0.5 to 100 nM

CCC(O)C(C)C1OC1CC(C)/C=C/C=C(\C)C1OC(=O)/C=C\CCC(C)(O)C(OC(C)=O)/C=C/C1C (centres unmarked) [B43-2, (2Z,8E,12E,14E)-7-acetoxy-6,21-dihydroxy-6,10,12,16,20-pentamethyl-18,19-epoxytricosa-2,8,12,14-tetraen-11-olide]
IC50: 0.5 to 100 nM

CCC(O)C(C)C1OC1CC(C)/C=C/C=C(\C)C1OC(=O)CC(O)CCC(C)(O)C(OC(N)=O)/C=C/C1C (centres unmarked) [B44, (8E,12E,14E)-7-Carbamoyloxy-3,6,21-trihydroxy-6,10,12,16,20-pentamethyl-18,19-epoxytricosa-8,12,14-trien-11-olide]
IC50: 0.5 to 100 nM

CCC(O)C(C)C1OC1CC(C)/C=C/C=C(\C)C1OC(=O)CC(O)CCC(C)(O)C(OC(=O)NC)/C=C/C1C (centres unmarked) [B45, (8E,12E,14E)-3,6,21-Trihydroxy-6,10,12,16,20-pentamethyl-7-N-methylcarbamoyloxy-18,19-epoxytricosa-8,12,14-trien-11-olide]
IC50: 0.5 to 100 nM

CCC(O)C(C)C1OC1CC(C)/C=C/C=C(\C)C1OC(=O)CC(O)CCC(C)(O)C(OC(=O)N(C)C)/C=C/C1C (centres unmarked) [B46, (8E,12E,14E)-3,6,21-Trihydroxy-6,10,12,16,20-pentamethyl-7-N,N-dimethylcarbamoyloxy-18,19-epoxytricosa-8,12,14-trien-11-olide]
IC50: 0.5 to 100 nM

CCC(O)C(C)C1OC1CC(C)/C=C/C=C(\C)C1OC(=O)CC(O)CCC(C)(O)C(OC(=O)NCCc2ccccn2)/C=C/C1C (centres unmarked) [B47, (8E,12E,14E)-3,6,21-Trihydroxy-6,10,12,16,20-pentamethyl-7-N-(2-(2-pyridyl)ethyl)carbamoyloxy-18,19-epoxytricosa-8,12,14-trien-11-olide]
IC50: 0.5 to 100 nM

CCC(O)C(C)C1OC1CC(C)/C=C/C=C(\C)C1OC(=O)CC(O)CCC(C)(O)C(OC(=O)N2CCC(O)CC2)/C=C/C1C (centres unmarked) [B48, (8E,12E,14E)-3,6,21-Trihydroxy-7-((4-hydroxypiperidin-1-yl)carbonyl)oxy-6,10,12,16,20-pentamethyl-18,19-epoxytricosa-8,12,14-trien-11-olide]
IC50: 0.5 to 100 nM

CCC(O)C(C)C1OC1CC(C)/C=C/C=C(\C)C1OC(=O)CC(O)CCC(C)(O)C(OC(=O)N2CCOCC2)/C=C/C1C (centres unmarked) [B49, (8E,12E,14E)-3,6,21-Trihydroxy-6,10,12,16,20-pentamethyl-7-((morpholin-4-yl)carbonyl)oxy-18,19-epoxytricosa-8,12,14-trien-11-olide]
IC50: 0.5 to 100 nM

CCC(O)C(C)C1OC1CC(C)/C=C/C=C(\C)C1OC(=O)CC(O)CCC(C)(O)C(OC(=O)N2CCN(C)CC2)/C=C/C1C (centres unmarked) [B50, (8E,12E,14E)-3,6,21-Trihydroxy-6,10,12,16,20-pentamethyl-7-((4-methylpiperazin-1-yl)carbonyl)oxy-18,19-epoxytricosa-8,12,14-trien-11-olide]
IC50: 0.5 to 100 nM

CCC(O)C(C)C1OC1CC(C)/C=C/C=C(\C)C1OC(=O)CC(O)CCC(C)(O)C(OC(=O)N2CCN(C(C)=O)CC2)/C=C/C1C (centres unmarked) [B51, (8E,12E,14E)-7-((4-Acetylpiperazin-1-yl)carbonyl)oxy-3,6,21-trihydroxy-6,10,12,16,20-pentamethyl-18,19-epoxytricosa-8,12,14-trien-11-olide]
IC50: 0.5 to 100 nM

CCC(O)C(C)C1OC1CC(C)/C=C/C=C(\C)C1OC(=O)CC(O)CCC(C)(O)C(OC(=O)N2CCNCC2)/C=C/C1C (centres unmarked) [B52, (8E,12E,14E)-3,6,21-Trihydroxy-6,10,12,16,20-pentamethyl-7-((piperazin-1-yl)carbonyl)oxy-18,19-epoxytricosa-8,12,14-trien-11-olide]
IC50: 0.5 to 100 nM

CCC(O)C(C)C1OC1CC(C)/C=C/C=C(\C)C1OC(=O)CC(O)CCC(C)(O)C(OC(=O)NCCOC)/C=C/C1C (centres unmarked) [B53, (8E,12E,14E)-3,6,21-Trihydroxy-7-(N-(2-methoxyethyl))carbamoyloxy-6,10,12,16,20-pentamethyl-18,19-epoxytricosa-8,12,14-trien-11-olide]
IC50: 0.5 to 100 nM

CCC(O)C(C)C1OC1CC(C)/C=C/C=C(\C)C1OC(=O)CC(O)CCC(C)(O)C(OC(=O)NCCN(C)C)/C=C/C1C (centres unmarked) [B54, (8E,12E,14E)-7-(N-(2-Dimethylamino)ethyl)carbamoyloxy-3,6,21-trihydroxy-6,10,12,16,20-pentamethyl-18,19-epoxytricosa-8,12,14-trien-11-olide]
IC50: 0.5 to 100 nM

CCC(O)C(C)C1OC1CC(C)/C=C/C=C(\C)C1OC(=O)CC(O)CCC(C)(O)C(OC(=O)NCCCN(C)C)/C=C/C1C (centres unmarked) [B55, (8E,12E,14E)-7-(N-(3-Dimethylamino)propyl)carbamoyloxy-3,6,21-trihydroxy-6,10,12,16,20-pentamethyl-18,19-epoxytricosa-8,12,14-trien-11-olide]
IC50: 0.5 to 100 nM

CCC(O)C(C)C1OC1CC(C)/C=C/C=C(\C)C1OC(=O)CC(O)CCC(C)(O)C(OC(=O)NCc2ccccn2)/C=C/C1C (centres unmarked) [B56, (8E,12E,14E)-3,6,21-Trihydroxy-6,10,12,16,20-pentamethyl-7-N-(2-pyridylmethyl)carbamoyloxy-18,19-epoxytricosa-8,12,14-trien-11-olide]
IC50: 0.5 to 100 nM

CCC(O)C(C)C1OC1CC(C)/C=C/C=C(\C)C1OC(=O)CC(O)CCC(C)(O)C(OC(=O)NCc2cccnc2)/C=C/C1C (centres unmarked) [B57, (8E,12E,14E)-3,6,21-Trihydroxy-6,10,12,16,20-pentamethyl-7-N-(3-pyridylmethyl)carbamoyloxy-18,19-epoxytricosa-8,12,14-trien-11-olide]
IC50: 0.5 to 100 nM

CCC(O)C(C)C1OC1CC(C)/C=C/C=C(\C)C1OC(=O)CC(O)CCC(C)(O)C(OC(=O)NCc2ccncc2)/C=C/C1C (centres unmarked) [B58, (8E,12E,14E)-3,6,21-Trihydroxy-6,10,12,16,20-pentamethyl-7-N-(4-pyridylmethyl)carbamoyloxy-18,19-epoxytricosa-8,12,14-trien-11-olide]
IC50: 0.5 to 100 nM

CCC(O)C(C)C1OC1CC(C)/C=C/C=C(\C)C1OC(=O)CC(O)CCC(C)(O)C(OC(=O)NCCN2CCOCC2)/C=C/C1C (centres unmarked) [B59, (8E,12E,14E)-3,6,21-Trihydroxy-6,10,12,16,20-pentamethyl-7-N-(2-(morpholin-4-yl)ethyl)carbamoyloxy-18,19-epoxytricosa-8,12,14-trien-11-olide]
IC50: 0.5 to 100 nM

CCC(O)C(C)C1OC1CC(C)/C=C/C=C(\C)C1OC(=O)CC(O)CCC(C)(O)C(OC(=O)NCCCN2CCOCC2)/C=C/C1C (centres unmarked) [B60, (8E,12E,14E)-3,6,21-Trihydroxy-6,10,12,16,20-pentamethyl-7-N-(3-(morpholin-4-yl)propyl)carbamoyloxy-18,19-epoxytricosa-8,12,14-trien-11-olide]
IC50: 0.5 to 100 nM

CCC(O)C(C)C1OC1CC(C)/C=C/C=C(\C)C1OC(=O)CC(O)CCC(C)(O)C(OC(=O)N2CCCNCC2)/C=C/C1C (centres unmarked) [B61, (8E,12E,14E)-3,6,21-Trihydroxy-6,10,12,16,20-pentamethyl-7-((homopiperazin-1-yl)carbonyl)oxy-18,19-epoxytricosa-8,12,14-trien-11-olide]
IC50: 0.5 to 100 nM

CCC(O)C(C)C1OC1CC(C)/C=C/C=C(\C)C1OC(=O)CC(O)CCC(C)(O)C(OC(=O)N2CCCN(C)CC2)/C=C/C1C (centres unmarked) [B62, (8E,12E,14E)-3,6,21-Trihydroxy-6,10,12,16,20-pentamethyl-7-((4-methylhomopiperazin-1-yl)carbonyl)oxy-18,19-epoxytricosa-8,12,14-trien-11-olide]
IC50: 0.5 to 100 nM

CCC(O)C(C)C1OC1CC(C)/C=C/C=C(\C)C1OC(=O)CC(O)CCC(C)(O)C(OC(=O)NCCN2CCCCC2)/C=C/C1C (centres unmarked) [B63, (8E,12E,14E)-3,6,21-Trihydroxy-6,10,12,16,20-pentamethyl-7-N-(2-(piperidin-1-yl)ethyl)carbamoyloxy-18,19-epoxytricosa-8,12,14-trien-11-olide]
IC50: 0.5 to 100 nM
